According to ChEMBL document CHEMBL3600313, “Novel (pyrazolyl)benzenesulfonamides with a nitric oxide-releasing moiety as selective cyclooxygenase-2 inhibitors” (Bioorg Med Chem Lett, 2015):

Tests used:
[1] = Nitric oxide release in phosphate-buffered-saline containing human plasma at 50 uM after 90 mins by fluorescence assay in absence of HgCl2
Plasma = assay: Nitric oxide release in human plasma using 2,3-diaminonaphthlene at 50 uM after 90 mins by fluorescence assay; type: ADME, cell-free; conditions: 1.5 h
[2] = molecular target: T1, Prostaglandin G/H synthase 2 (Homo sapiens, UniProt P35354); assay: Inhibition of recombinant human COX-2 assessed as reduction of prostaglandin-G2 to prostaglandin-H2 and oxidation of 10-acetyl-3,7-dihydroxyphenoxazine to resorufin after 5 mins by fluorescence based assay
T1 sequence (P35354 whole entry): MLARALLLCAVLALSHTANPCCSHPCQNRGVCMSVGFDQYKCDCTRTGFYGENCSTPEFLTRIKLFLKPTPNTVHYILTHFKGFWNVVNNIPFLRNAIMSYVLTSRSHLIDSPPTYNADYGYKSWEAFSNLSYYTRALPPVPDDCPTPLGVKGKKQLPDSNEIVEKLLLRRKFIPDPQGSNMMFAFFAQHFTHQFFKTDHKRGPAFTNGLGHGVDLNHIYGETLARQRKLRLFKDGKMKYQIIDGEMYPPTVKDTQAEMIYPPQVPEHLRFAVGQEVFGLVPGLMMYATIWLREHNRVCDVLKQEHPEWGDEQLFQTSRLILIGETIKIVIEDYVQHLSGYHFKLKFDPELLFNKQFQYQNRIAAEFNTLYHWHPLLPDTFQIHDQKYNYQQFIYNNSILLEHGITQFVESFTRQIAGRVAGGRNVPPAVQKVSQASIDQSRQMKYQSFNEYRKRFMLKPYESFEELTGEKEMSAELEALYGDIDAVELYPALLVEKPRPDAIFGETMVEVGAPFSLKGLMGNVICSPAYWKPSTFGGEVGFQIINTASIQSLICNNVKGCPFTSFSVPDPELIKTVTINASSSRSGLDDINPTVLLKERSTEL

[3] = Nitric oxide release in phosphate-buffered-saline containing human plasma at 50 uM after 90 mins by fluorescence assay in presence of HgCl2
[4] = Chemical stability of the compound in aqueous solution after 9 days by HPLC analysis; type: physicochemical; conditions: buffer, 216 h
[5] = molecular target: T2, Prostaglandin G/H synthase 1 (Ovis aries, UniProt P05979); assay: Inhibition of ovine COX-1 assessed as reduction of prostaglandin-G2 to prostaglandin-H2 and oxidation of 10-acetyl-3,7-dihydroxyphenoxazine to resorufin after 5 mins by fluorescence based assay
T2 sequence (P05979 whole entry): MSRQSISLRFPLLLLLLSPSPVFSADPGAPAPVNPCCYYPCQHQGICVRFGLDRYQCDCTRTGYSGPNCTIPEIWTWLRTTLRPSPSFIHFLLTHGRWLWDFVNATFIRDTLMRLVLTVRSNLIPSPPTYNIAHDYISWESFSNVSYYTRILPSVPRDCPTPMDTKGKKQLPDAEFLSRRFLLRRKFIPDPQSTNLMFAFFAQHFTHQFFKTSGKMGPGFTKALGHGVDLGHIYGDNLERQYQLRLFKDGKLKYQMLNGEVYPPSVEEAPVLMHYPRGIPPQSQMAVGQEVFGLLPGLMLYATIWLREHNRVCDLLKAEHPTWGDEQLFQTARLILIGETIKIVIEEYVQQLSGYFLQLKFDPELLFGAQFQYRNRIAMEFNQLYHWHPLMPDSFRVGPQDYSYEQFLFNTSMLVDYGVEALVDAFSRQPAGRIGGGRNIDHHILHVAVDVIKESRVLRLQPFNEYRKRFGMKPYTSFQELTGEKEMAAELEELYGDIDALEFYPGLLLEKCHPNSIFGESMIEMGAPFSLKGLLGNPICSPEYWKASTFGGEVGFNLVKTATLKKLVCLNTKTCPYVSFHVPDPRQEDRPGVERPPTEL

[6] = Selectivity index, ratio of IC50 for ovine COX-1 to IC50 for recombinant human COX-2
[7] = Nitric oxide release in phosphate-buffered-saline containing K3[Fe(CN)6] using 2,3-diaminonaphthlene at 50 uM after 90 mins by fluorescence assay
[8] = Nitric oxide release in phosphate-buffered-saline containing L-cysteine using 2,3-diaminonaphthlene at 50 uM after 90 mins by fluorescence assay
[9] = Nitric oxide release in phosphate-buffered-saline using 2,3-diaminonaphthlene at 50 uM after 90 mins by Griess assay
Serum = assay: Nitric oxide release in rat serum using 2,3-diaminonaphthlene at 50 uM after 90 mins by Griess assay; type: ADME, cell-free; conditions: 1.5 h
[10] = Nitric oxide release in phosphate-buffered-saline containing K3[Fe(CN)6] using 2,3-diaminonaphthlene at 50 uM after 90 mins by Griess assay
[11] = Nitric oxide release in phosphate-buffered-saline using 2,3-diaminonaphthlene at 50 uM after 90 mins by fluorescence assay

Compound: Cc1ccc(-c2cc(CO[N+](=O)[O-])nn2-c2ccc(S(N)(=O)=O)cc2)cc1
- Activity [1]: 0%
- Activity (Plasma): 0.3%
- IC50 [2]: 0.89 µM
- Activity [3]: 3.5%
- Stability [4]: Stable
- IC50 [5]: > 100 µM
- Ratio IC50 [6]: > 112
- Activity [7]: 0.6%
- Activity [8]: 1.2%

Compound: CC(=O)Oc1ccccc1C(=O)OCCCCO[N+](=O)[O-]
- Activity (Plasma): 1.4%
- IC50 [2]: 45 µM
- IC50 [5]: 65 µM
- Ratio IC50 [6]: 1.4
- Activity [7]: 0.2%
- Activity [8]: 0.8%

Compound: Cc1ccc(-c2cc(CO)nn2-c2ccc(S(N)(=O)=O)cc2)cc1
- IC50 [2]: 1.27 µM
- Stability [4]: Stable
- IC50 [5]: > 100 µM
- Ratio IC50 [6]: > 78.7

Compound: Cc1ccc(-c2cc(CCl)nn2-c2ccc(S(N)(=O)=O)cc2)cc1
- IC50 [2]: 0.97 µM
- IC50 [5]: > 100 µM
- Ratio IC50 [6]: > 103

Compound: Cc1ccc(-c2c(Cl)c(CO[N+](=O)[O-])nn2-c2ccc(S(N)(=O)=O)cc2)cc1
- Activity [1]: 0%
- Activity (Plasma): 0.5%
- IC50 [2]: 0.28 µM
- Activity [3]: 3.5%
- IC50 [5]: 61 µM
- Ratio IC50 [6]: 218
- Activity [8]: 0.8%

Compound: O=S(=O)(NO)c1ccccc1
- Activity [9]: 59.7%
- Activity (Plasma): 0.3%
- Activity [7]: 48.3%
- Activity (Serum): 3.2%
- Activity [10]: 58.4%
- Activity [11]: 33.5%
- Activity [8]: 0.3%

Compound: Cc1ccc(-c2c(Cl)c(CCl)nn2-c2ccc(S(N)(=O)=O)cc2)cc1
- IC50 [2]: 0.22 µM
- IC50 [5]: > 100 µM
- Ratio IC50 [6]: > 454
